# Columns and labels:
# [1] = target: RBP4 with TTR (Homo sapiens, UniProt P02753); conditions: cited from earlier work
# [2] = tested on: RXR isoforms; conditions: in vitro; cited from earlier work
# [3] = tested on: obese mice on a high fat diet (HFD); experiment: Glucose tolerance test (GTT) in mice on high fat diet; assay type: in vivo, mouse; conditions: HFD with 0.04% fenretinide for 16 weeks, 2 g/kg glucose
# Description: (§1) Plasma glucose was measured by glucometer (One Touch Ultra, Lifescan). Insulin (crystal chemical), FFAs (Wako) and adipokines (leptin, adiponectin, and resistin) (LINCO research) were measured using commercially available kits. ITT was performed by i.p. injection of recombinant regular human insulin 3-4 hours after food removal. Different insulin doses were used for different mouse lines and ages as described. GTT was performed by i.p. injection of glucose (1 or 2 g D-glucose per kg body weight) after overnight fasting.
# (§2) To determine the effect of RBP4 independently of transgenic manipulation, adult FVB mice were treated with fenretinide (4-hydroxyphenyl retinamide, 4-HPR), a synthetic retinoid originally designed for cancer therapy. […] Three-week old male FVB mice received chow diet, high fat diet or high fat diet supplemented with 0.04% fenretinide. Fenretinide gel capsules were emptied and added directly to the fat soluble vitamin component of the Harlan-Teklad laboratory high fat diet in at the time of diet preparation. Light exposure was minimized during fenretinide high fat diet preparation. Fenretinide high fat diet was stored in the dark at 4° C. and were placed in mouse cages at 2-3 day intervals. […] Thus, both genetic and pharmacological interventions that decrease RBP4 levels improve insulin sensitivity even in obesity.
# [4] = Food intake, body weight and obesity on high fat diet; assay type: in vivo, mouse; conditions: 0.04% fenretinide in high fat diet, FVB mice
# Description: as §2
# [5] = target: T1, serum RBP4 (Mus musculus, UniProt Q00724); experiment: Serum RBP4 levels (immunoblot) in mice fed high fat diet with fenretinide; assay type: in vivo; conditions: oral, 0.04% fenretinide in high fat diet, FVB mice
# T1 construct: from tissue; host or cells: mouse serum (FVB and AG4KO mice)
# Description: Serum or plasma RBP4 was measured by diluting the serum or plasma 20 times in a standard detergent-containing buffer, separated by 15% SDS-PAGE, and transferred to nitrocellulose (Kim, Y. B., et al. Diabetes 48:310-320 (1999)). Mouse RBP4 and human RBP4 were detected using anti-rat or anti-human (DAKO, Germany) polyclonal antisera, respectively, followed by standard ECL detection.
# as §2
# [6] = tested on: ob/ob mice; experiment: IPGTT in ob/ob mice treated with fenretinide; assay type: in vivo, mouse
# Description: IPGTT (2 mg/g body weight) was performed on mice (12 weeks old) after 8 weeks of diet/treatment (FIG. 26A). Plasma glucose was measured at the indicated times; the open circles represent ob/+, the closed circles represent ob/ob mice and the open squares represent ob/ob mice treated with fenretinide.
# IPGTT (1 mg/g body weight) was performed on mice (42 weeks old). After 38 weeks of diet/treatment (FIG. 26B), plasma glucose was measured at the indicated times; the closed squares are ob/+, the closed circles are ob/+ mice treated with fenretinide; open squares are ob/ob and open circles are ob/ob treated with fenretinide.
# [7] = tested on: obese mice on a high fat diet (HFD); experiment: Insulin tolerance test (ITT) in mice on high fat diet; assay type: in vivo, mouse; conditions: HFD with 0.04% fenretinide, 15 weeks of treatment, 1.1 U/kg insulin
# Description: as §1, §2
# [8] = tested on: ob/ob mice; experiment: Long-term mortality of ob/ob mice; assay type: in vivo, mouse; conditions: 10 months of treatment, compared to untreated controls
# Description: The ob/ob mice at 10 months of age were severely obese.
smiles,measurement,setting,value
"CC1=C(/C=C/C(C)=C/C=C/C(C)=C/C(=O)Nc2ccc(O)cc2)C(C)(C)CCC1 [fenretinide, 4-hydroxyphenyl retinamide]",interaction of RBP4 with TTR,[1],disrupts the interaction of RBP4 with TTR
same,activation of RXR isoforms,[2],does not activate
same,glucose tolerance (GTT),[3],normalized glucose tolerance
same,body weight,[4],did not affect
same,development of obesity on the high fat diet,[4],did not affect
same,food intake,[4],did not affect
same,serum RBP4 levels,[5],lowered serum RBP4 levels in obese mice on a high fat diet (HFD) to the level of non-obese control mice on a chow diet
same,glucose tolerance (IPGTT),"[6]; ob/ob mice 12 weeks old, 8 weeks of treatment, 2 mg/g body weight",greatly improved their glucose tolerance
same,glucose disposal (IPGTT),"[6]; ob/ob mice 42 weeks old, 38 weeks of treatment, 1 mg/g body weight",improve glucosed disposal to nearly that of heterozygous mice
same,insulin sensitivity (ITT),[7],improved insulin sensitivity
same,long term mortality,[8],reduced by almost half

# Reference: patent US8568969B2, “RBP4 in insulin sensitivity/resistance, diabetes, and obesity” (Beth Israel Deaconess Medical Center, Inc., priority 2003, dated 2013)
